# Results: patent EP2599767A1, “Phenylbutyl-derivatives” (Lunamed AG, priority 2011, dated 2013)
# Like-named read-outs stand apart in the source and are kept apart here.
# Experiments:
# Jurkat cells [1] = experiment: Cell proliferation assay (dilution of fluorescent membrane marker, flow cytometry); assay type: cell-based; settings: for IC50: Homo sapiens, Jurkat, 48 h; for anti-proliferative effect (in words): Jurkat cell line, 48 hours of treatment, without zVAD, Example 3: 30mM and 10mM
# Protocol: This study was performed using the following cell line on the two types of experiments performed: • Experiment 1: Study of the effects of compounds of Examples 3 and 4 according to the invention on apoptosis and cell proliferation: • o Jurkat: acute T cell leukemia • Experiment 2: Study of the caspase dependency of cell death induced by the compounds of Example 3 and 4 according to the invention. • o Jurkat: acute T cell leukemia This assay is based on the dilution rate of a fluorescent membrane marker which is a direct function of cell division. This probe is non toxic and allows the multiplexed detection of other parameters on the same cell population. The assay is performed by loading the cells with a fluorescent phospholipid analogue before plating. […] Subsequently, Flow cytometry analyzes the dilution rate of the fluorescent probe at the single cell level which is a direct readout of the number of cell divisions. All the conditions were performed in triplicate. Detection of cellular events was performed in triplicate in 96 well-plates after 48 hours of treatment by automated flow cytometry. Non-linear regressions and IC50 calculation were performed with GraphPad Prism 4.01 software. Briefly the time course of the experiments was the following: • o day 1 : seeding of cells in 96 well-plates. • o day 2 : treatment with compounds. • o day 4 : analysis at 48h-treatment. […] Effects of the two compounds of Examples 3 and 4 on apoptosis and cell proliferation in the Jurkat cell line: • The cells were labeled for subsequent cell proliferation measurements and plated in 96 well culture plates in standard culture conditions. • 24 hours after plating, the cells were treated with the two compounds of Examples 3 and 4. Experiment 2: […]
# Jurkat cells [2] = experiment: Apoptosis assay (active Caspase 3/7 by FAM-DEVD-FMK probe, flow cytometry); assay type: cell-based; settings: Jurkat cell line; for EC50: Homo sapiens, pro-apoptotic effects; for EC50 / pro-apoptotic effect (in words): 48 hours of treatment; for caspase dependence: effects in presence of zVAD-FMK (in words): 100µM zVAD-FMK, Example 4 at 5mM; for pro-apoptotic effect (in words): Example 3: 30mM and 10mM
# Protocol: This study was performed using the following cell line on the two types of experiments performed: • Experiment 1: Study of the effects of compounds of Examples 3 and 4 according to the invention on apoptosis and cell proliferation: • o Jurkat: acute T cell leukemia • Experiment 2: Study of the caspase dependency of cell death induced by the compounds of Example 3 and 4 according to the invention. • o Jurkat: acute T cell leukemia Apoptosis was quantified at the single cell level by titrating active Caspase 3/7. This assay is based on the strong affinity of the FAM-DEVD-FMK peptide (carboxyfluorescein-labeled fluoromethyl ketone) for the catalytic site of the protease. When added to a cell culture, the FAM-DEVD-FMK probe enters cells and covalently binds to the large subunit of the active caspase 3/7. The bound labelled peptide remains within the cytosolic compartment, while the unbound peptides are drained off from the cell. The probe emits a green fluorescent signal which allows a direct measure of the amount of active caspase 3/7 present in the cell. All the conditions were performed in triplicate. Detection of cellular events was performed in triplicate in 96 well-plates after 48 hours of treatment by automated flow cytometry. Non-linear regressions and IC50 calculation were performed with GraphPad Prism 4.01 software. Briefly the time course of the experiments was the following: • o day 1 : seeding of cells in 96 well-plates. • o day 2 : treatment with compounds. • o day 4 : analysis at 48h-treatment. […] Effects of the two compounds of Examples 3 and 4 on apoptosis and cell proliferation in the Jurkat cell line: • The cells were labeled for subsequent cell proliferation measurements and plated in 96 well culture plates in standard culture conditions. • 24 hours after plating, the cells were treated with the two compounds of Examples 3 and 4. Experiment 2: […] zVad-FMK is a cell-permeant pan caspase inhibitor that irreversibly binds to the catalytic site of caspase proteases and can inhibit induction of apoptosis.
# [3] = Solubility in solvents (qualitative); assay type: physicochemical; settings: solvents as named in the value
# [4] = +100µM zVAD, read-out: EC50 (+100µM zVAD)
# [5] = without zVAD, read-out: EC50 (without zVAD)
structure (smiles),measurement,setting,value
"O=C(O)CCCc1ccccc1 [Example 4-PB, 4-Phenylbutyric acid, reference compound]",IC50,Jurkat cells [1]; read-out: IC50 (+100µM zVAD),2200 µM
same,IC50,Jurkat cells [1]; read-out: IC50 (without zVAD),2600 µM
same,anti-proliferative effect (in words),Jurkat cells [1],inhibit proliferation
same,EC50,Jurkat cells [2]; [4],10 mM
same,EC50,Jurkat cells [2]; [5],3.2 mM
same,caspase dependence: effects in presence of zVAD-FMK (in words),Jurkat cells [2],well inhibited by zVAD-FMK
same,pro-apoptotic effect (in words),Jurkat cells [2]; without zVAD,able to elicit apoptosis
"CC(NC(=O)CCCc1ccccc1)C(=O)O (centres unmarked) [Example 3, 2-(4-Phenyl-butyrylamino)-propionic acid]",solubility (in words),[3],soluble in alcohols (ethanol and methanol) as well as in acetic acid
same,IC50,Jurkat cells [1]; read-out: IC50 (+100µM zVAD),4300 µM
same,IC50,Jurkat cells [1]; read-out: IC50 (without zVAD),3200 µM
same,anti-proliferative effect (in words),Jurkat cells [1],anti-proliferative effects
same,EC50,Jurkat cells [2]; [4],13 mM
same,EC50,Jurkat cells [2]; [5],6.4 mM
same,caspase dependence: effects in presence of zVAD-FMK (in words),Jurkat cells [2],sensitive to 100µM zVAD-fmk
same,pro-apoptotic effect (in words),Jurkat cells [2]; without zVAD,pro-apoptotic
C[C@H](NC(=O)CCCc1ccccc1)C(=O)OCCOC(=O)[C@@H](C)NC(=O)CCCc1ccccc1 [Example 4],solubility (in words),[3],"soluble in dichloromethane, ethyl acetate and acetonitrile"
same,IC50,Jurkat cells [1]; read-out: IC50 (without zVAD),9000 µM
same,anti-proliferative effect (in words),Jurkat cells [1],concentration dependent anti-proliferative effect
same,caspase dependence: effects in presence of zVAD-FMK (in words),Jurkat cells [2],no apoptosis was observed
same,pro-apoptotic effect (in words),Jurkat cells [2]; without zVAD,able to induce apoptosis only at the highest concentration tested (5mM)
"CN[C@@H]1C[C@H]2O[C@@](C)([C@@H]1OC)n1c3ccccc3c3c4c(c5c6ccccc6n2c5c31)C(=O)NC4 [STS, Staurosporine, reference compound]",IC50,Jurkat cells [1]; read-out: IC50 (+100µM zVAD),0.011 µM
same,IC50,Jurkat cells [1]; read-out: IC50 (without zVAD),0.012 µM
same,EC50,Jurkat cells [2]; [5],2.3e-05 mM
